In patent publication US20210207099A1, “METHODS AND COMPOSITIONS FOR GENERATING CELLS OF ENDODERMAL LINEAGE AND BETA CELLS AND USES THEREOF” (priority 2018, published 2021):

Columns and labels:
Type in all cases: cell-based, human
[1] = test system: TGFβ signaling (phosphorylated SMAD); assay: Western blot of SMAD 2/3 phosphorylation in Stage 6 cells; conditions: lesser extent than Alk5i
Experimental: Protein was extracted from cell clusters after washing with PBS by placing in western blot lysis buffer consisting 50 mM HEPES, 140 mM NaCl (MilliporeSigma; 7647-14-5), 1 mM EDTA (MilliporeSigma, 1233508), 1% Triton X-100, 0.1% Na-deoxycholate (MilliporeSigma: D6750), 0.1% SDS (ThermoScientific; 24730020), 1 mM Na3VO4 (MilliporeSigma; 450243), 10 mM NaF (MilliporeSigma; S7920), and 1% Protease Inhibitor Cocktail (MilliporeSigma; p8340), incubating on a shaker for 15 min at 4° C., and centrifuging at 10000 RCF for 10 min at 4° C. Protein amount was quantified with the Pierce BCA Protein Assay (Thermo Scientific; 23228). Protein (30 μg) was loaded onto a 4-20% gradient polyacrylamide gel (Invitrogen; SP04200BOX), resolved by electrophoresis, and transferred onto a 0.45 μm nitrocellulose membrane (BioRad; 1620115). The nitrocellulose membrane was blocked with Blotting Grade Blocker (BioRad; 170-6404) and incubated with rabbit-anti-phospho-SMAD⅔ 1:1000 (Cell Signaling Technologies; 8828) and rabbit-anti-Actin 1:1000 (Santa Cruz Biotechnology; SC1616) antibodies in blocker overnight at 4° C. Membrane was washed and stained with rabbit secondary antibody 1:2500 (Jackson Immuno Research Laboratories; 211-032-171) in blocker for 2 hr at 4° C. and developed using SuperSignal West Femto (Thermo Scientific; 34096). Images were taken on an Odyssey FC (Li-COR). After imaging, the nitrocellulose membrane was stripped using Restore Western Blot Stripping Buffer (Thermo Scientific; 21059), incubated with rabbit-anti-SMAD⅔ (Cell Signaling Technologies; 8685) antibody overnight at 4° C., washed and stained with rabbit secondary antibody 1:2500 in blocker for 2 hr 4° C., developed using SuperSignal West Femto, and imaged using the Odyssey FC.

TGFBR1 = assay: Lentiviral shRNA knockdown of TGFBR1 in Stage 6 cells; conditions: real-time PCR
Experimental: TBP was used as a normalization gene.
pLKO.1 TRC plasmids containing shRNA sequences contained the following sequences: shRNA GFP, […] (SEQ ID NO: 89); shRNA TGFBR1 #1, […] (SEQ ID NO: 90); shRNA TGFBR1 #2, […] (SEQ ID NO: 91). Lentivirus particles were generated and titered using pMD-Lgp/RRE and pCMV-G, and RSV-REV packaging plasmids to contain shRNA. Stage 6 Day 1 cells were single cell dispersed using TrypLE, and 3 million cells were seeded in 4 mL ESFM lentivirus particles at MOI 3-5 on the shaker. Transduced cells were washed with fresh ESFM 16 hr post transduction. RNA extraction and static GSIS was performed on stage 6 day 13.

[2] = test system: plated pancreatic progenitors; assay: Single-cell RNA sequencing of plated pancreatic progenitors treated throughout stage 4; conditions: 5 μM nocodazole throughout stage 4
Experimental: Cells generated with the suspension protocol were single-cell dispersed with TrypLE from clusters at the end of stage 3 and seeded onto collagen 1 coated 24-well plates at 0.625×10^6 cells/cm^2. Either 0.5 μM latrunculin A or 5 μM nocodazole were added throughout the entirety of stage 4. At the end of stage 4, cells were single-cell dispersed, suspended in DMEM, and submitted to the Washington University Genome Technology Access Center. Library preparation was done using the Chromium Single Cell 3′ Library and Gel Bead Kit v2 (10× Genomics, 120237). Briefly, single cells were isolated in emulsions using a microfluidic platform, and each single cell emulsion was barcoded with a unique set of oligonucleotides. The GemCode Platform was used to carry out reverse transcription within each single cell emulsion, which was amplified to construct a library. The libraries were sequenced with paired-end reads of 26×98 primerbp using the Illumina HiSeq2500.
Seurat v2.0 was used to perform single cell RNA analyses. Duplicate cells and cells with high mitochondrial gene expression were filtered out using FilterCells (>9000 total genes and >5% mitochondrial genes for Untreated Control, >6000 genes and >6% mitochondrial genes for latrunculin A, >12000 genes and >4% mitochondrial genes for nocodazole). Each data set was normalized using global-scaling normalization. FindVariableGenes identified and removed outlier genes using scaled z-score dispersion. The datasets were then combined and a canonical correlation analysis (CCA) was performed with RunMultiCCA. AlignSubspace was used to align the CCA subspaces and generated a new dimension reduction for integrated analysis. Unsupervised TSNE plots were generated using RunTSNE, and the resulting clusters were defined and labeled using FindMarkers. VInPlot (Violin plots) and FeaturePlot (tsne plots) were used to visualize differences in gene expressions across each cluster and conditions.

[3] = test system: HUES8 cells, hepatic differentiation protocol; assay: Liver differentiation with cytoskeletal compounds; conditions: 1 μM for the first 24 hours of stage 3
Experimental: (§1) For differentiation to other endodermal lineages, HUES8 stem cells were cultured and passaged normally. Differentiations were initiated 24 hours after seeding 24-well plates at 0.521×10^6 cells/cm^2. Protocols for exocrine pancreas, intestine, and liver were adapted, from literature. Either latrunculin A or nocodazole were added as indicated in each protocol. All three differentiation protocols used the same stage 1 to induce endoderm. Stage 1 (4 days): BE1 media+100 ng/mL Activin A+3 μM CHIR99021 for the first 24 hours, followed with 3 days of BE1 containing 100 ng/mL Activin A only.
Liver Differentiation: Stage 2 (2 days): BE2 media+50 ng/mL KGF. Stage 3 (4 days): BE3 media+10 ng/mL bFGF+30 ng/mL BMP4 (R&D Systems, 314-BP). For the first 24 hours only, 2 μM retinoic acid and either 1 μM latrunculin A or 1 μM nocodazole were added. Stage 4 (5 days): BE3 media+20 ng/mL OSM (R&D Systems, 295-OM)+20 ng/mL HGF (R&D Systems, 294-HG)+100 nM dexamethasone (MilliporeSigma, D4902).

[4] = test system: HUES8 cells, intestinal differentiation protocol; assay: Intestine differentiation with cytoskeletal compounds; conditions: 1 μM for the entirety of stage 2
Experimental: as §1
Intestine Differentiation: Stage 2 (4 days): BE2 media+3 μM CHIR99021+500 ng/mL FGF4 (R&D Systems, 235-F4). Either 1 μM latrunculin A was added for the first 24 hours of this stage, or 1 μM nocodazole was added for the entirety of stage 2. Stage 3 (7 days): BE3 media+500 ng/mL R-spondin1 (R&D Systems, 4645-RS)+100 ng/mL EGF (R&D Systems, 236-EG)+200 nM LDN193189.

[5] = test system: HUES8 cells, exocrine differentiation protocol; assay: Exocrine pancreas differentiation with cytoskeletal compounds; conditions: 1 μM for the entirety of stage 4
Experimental: as §1
Exocrine Pancreas: Stage 2 (2 days): BE2 media+50 ng/mL KGF. Stage 3 (2 days): BE3+50 ng/mL KGF, 200 nM LDN193189, 500 nM TPPB, 2 μM retinoic acid, and 0.25 μM SANT1. Stage 4 (4 days): BE3+50 ng/mL KGF, 200 nM LDN193189, 500 nM TPPB, 0.1 μM retinoic acid, and 0.25 μM SANT1. Either 1 μM latrunculin A was added for the first 24 hours of this stage, or 1 μM nocodazole was added for the entirety of stage 4. Stage 5 (6 days): S5 media+10 ng/mL bFGF. 10 mM nicotinamide (MilliporeSigma, 72340) was added for the last two days.

TGFBR1 #2: lentivirus carrying shRNA against TGFBR1, GCAGGATTCTTTAGGCTTTAT (SEQ ID NO: 91)
SMAD phosphorylation after shRNA transduction [1]: reduced SMAD phosphorylation
TGFBR1 transcript compared to control virus targeting GFP (TGFBR1): reducing TGFBR1 transcript

COC(=O)Nc1nc2ccc(C(=O)c3cccs3)cc2[nH]1 [nocodazole]
percentage of exocrine-like progenitors [2]: 67.0%
hepatocyte gene expression [3]: increased hepatocyte gene expression
immunostaining for albumin [3]: more abundant with nocodazole treatment
CDX2 gene expression and immunostaining [4]: greatly increased CDX2 gene expression and immunostaining
endocrine induction [5]: inhibited endocrine induction
trypsin gene expression (PRSS1, PRSS2) and immunostaining [5]: greatly increased trypsin gene expression

TGFBR1 #1: lentivirus carrying shRNA against TGFBR1, GATCATGATTACTGTCGATAA (SEQ ID NO: 90)
SMAD phosphorylation after shRNA transduction [1]: reduced SMAD phosphorylation
TGFBR1 transcript compared to control virus targeting GFP (TGFBR1): reducing TGFBR1 transcript
